Active and inactive are the calls of the source. Unless noted, the calls are words filed in the database; no cut-off is given here.
What was measured:
[1] = molecular target: T1, Thromboxane-A synthase (Homo sapiens) (UniProt P24557); experiment: Inhibition of TXS in human platelet rich plasma assessed as decrease in TXB2 production at 100 uM using arachidonic acid after 5 mins by ELISA
T1 sequence (whole entry): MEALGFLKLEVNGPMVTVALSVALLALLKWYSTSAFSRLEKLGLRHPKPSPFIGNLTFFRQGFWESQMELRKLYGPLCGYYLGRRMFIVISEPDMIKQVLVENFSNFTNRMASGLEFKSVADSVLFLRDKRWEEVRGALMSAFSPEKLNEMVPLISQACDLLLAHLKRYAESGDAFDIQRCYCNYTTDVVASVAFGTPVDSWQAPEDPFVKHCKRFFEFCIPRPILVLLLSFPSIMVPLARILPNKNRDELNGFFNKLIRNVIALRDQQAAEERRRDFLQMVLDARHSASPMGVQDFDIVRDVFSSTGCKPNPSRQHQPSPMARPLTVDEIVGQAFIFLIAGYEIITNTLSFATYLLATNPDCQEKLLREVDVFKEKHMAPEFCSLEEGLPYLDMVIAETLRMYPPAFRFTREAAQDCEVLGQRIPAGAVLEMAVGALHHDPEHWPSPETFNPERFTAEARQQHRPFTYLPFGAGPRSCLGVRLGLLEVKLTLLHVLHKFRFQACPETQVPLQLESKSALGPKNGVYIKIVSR

Platelet [2] = experiment: Antiplatelet activity in human platelet rich plasma assessed as inhibition of arachidonic acid-induced platelet aggregation preincubated for 2 mins followed by arachidonic acid addition by turbidimetric method relative to control; assay type: functional, cell-based
Plasma [3] = experiment: Change in prothrombin time in human plasma at 100 uM incubated for 15 mins at room temperature and 2 mins at 37 degC in presence of calcium thromboplastin; assay type: ADME, cell-free
[4] = molecular target: T2, Prostaglandin G/H synthase 2 (Homo sapiens, UniProt P35354); experiment: Inhibition of recombinant human COX-2 assessed as reduction in PGH2 production up to 100 uM using arachidonic acid as substrate preincubated for 5 mins followed by substrate and hematin addition measured after 2 mins by ELISA relative to control
T2 sequence (P35354 whole entry): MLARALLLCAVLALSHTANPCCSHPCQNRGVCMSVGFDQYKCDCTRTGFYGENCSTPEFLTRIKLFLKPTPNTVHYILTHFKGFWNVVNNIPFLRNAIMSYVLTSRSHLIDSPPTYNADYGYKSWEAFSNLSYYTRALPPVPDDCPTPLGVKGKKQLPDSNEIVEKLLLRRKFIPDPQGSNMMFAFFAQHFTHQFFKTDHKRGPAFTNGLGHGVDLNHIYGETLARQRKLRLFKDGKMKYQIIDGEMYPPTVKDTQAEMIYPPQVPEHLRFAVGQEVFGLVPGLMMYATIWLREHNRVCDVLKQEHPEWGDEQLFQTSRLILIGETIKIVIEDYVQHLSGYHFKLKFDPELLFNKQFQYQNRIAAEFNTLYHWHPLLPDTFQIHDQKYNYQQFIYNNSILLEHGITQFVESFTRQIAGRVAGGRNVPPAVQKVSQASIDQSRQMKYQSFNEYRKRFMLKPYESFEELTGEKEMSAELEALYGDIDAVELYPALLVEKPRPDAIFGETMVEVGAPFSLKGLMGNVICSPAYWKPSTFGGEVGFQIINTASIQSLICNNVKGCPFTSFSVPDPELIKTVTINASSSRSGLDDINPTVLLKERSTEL

Blood = experiment: Reduction of clot retraction in human whole blood after 2 hrs; assay type: ADME, tissue-based
[5] = Hemolytic activity against human erythrocytes after 3 hrs relative to control; assay type: ADME, cell-based, Erythrocyte; details: read-out: Activity
Platelet [6] = experiment: Antiplatelet activity in human platelet rich plasma assessed as inhibition of arachidonic acid-induced platelet aggregation at 100 uM preincubated for 2 mins followed by arachidonic acid addition by turbidimetric method relative to control; assay type: functional
[7] = Selectivity ratio of IC50 for recombinant human CYP3A4 to IC50 for arachidonic acid-induced platelet aggregation in human platelet rich plasma
Platelet [8] = experiment: Potency index, ratio of aspirin IC50 to test compound IC50 for inhibition of arachidonic acid-induced platelet aggregation in human platelet rich plasma; assay type: functional
Plasma [9] = experiment: Change in activated partial thromboplastin time in human plasma at 100 uM incubated for 15 mins at room temperature and 2 mins at 37 degC in presence of CaCl2; assay type: ADME, cell-free
Platelet [10] = experiment: Antiplatelet activity in human platelet rich plasma assessed as inhibition of collagen-induced platelet aggregation preincubated for 2 mins followed by collagen addition by turbidimetric method; assay type: cell-based
[11] = molecular target: Prostaglandin G/H synthase 1 (Homo sapiens, UniProt P23219); experiment: Inhibition of COX1 in human platelet rich plasma assessed as decrease in PGE2 production at 100 uM using arachidonic acid as substrate after 5 mins by ELISA
Platelet [12] = experiment: Antiplatelet activity in human platelet rich plasma assessed as inhibition of collagen-induced platelet aggregation at 100 uM preincubated for 2 mins followed by collagen addition by turbidimetric method relative to control; assay type: cell-based
Platelet [13] = experiment: Drug uptake in human platelet assessed as co-localization with CD31 at 100 uM by confocal microscopy analysis; assay type: ADME, cell-based
[14] = molecular target: T3, Prostaglandin G/H synthase 1 (Ovis aries, UniProt P05979); experiment: Inhibition of ovine COX-1 assessed as reduction in PGH2 production up to 100 uM using arachidonic acid as substrate preincubated for 5 mins followed by substrate and hematin addition measured after 2 mins by ELISA relative to control; details: sheep
T3 sequence (P05979 whole entry): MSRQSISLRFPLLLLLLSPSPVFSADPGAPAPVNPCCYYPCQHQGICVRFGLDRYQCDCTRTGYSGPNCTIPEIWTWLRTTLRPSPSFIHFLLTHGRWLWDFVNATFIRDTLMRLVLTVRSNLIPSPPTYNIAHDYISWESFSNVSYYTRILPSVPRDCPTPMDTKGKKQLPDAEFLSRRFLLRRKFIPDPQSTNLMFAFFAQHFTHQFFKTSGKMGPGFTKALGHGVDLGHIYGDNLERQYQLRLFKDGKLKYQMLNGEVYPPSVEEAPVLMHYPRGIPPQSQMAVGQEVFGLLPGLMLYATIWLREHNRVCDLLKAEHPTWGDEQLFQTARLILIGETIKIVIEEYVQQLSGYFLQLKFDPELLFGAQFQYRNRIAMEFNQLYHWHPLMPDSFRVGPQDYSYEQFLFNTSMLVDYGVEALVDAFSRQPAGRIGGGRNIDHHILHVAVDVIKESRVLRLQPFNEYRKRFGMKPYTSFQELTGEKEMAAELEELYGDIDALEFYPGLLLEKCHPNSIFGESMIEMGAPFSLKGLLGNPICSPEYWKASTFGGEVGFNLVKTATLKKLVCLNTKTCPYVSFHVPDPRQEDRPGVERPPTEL

Platelet [15] = experiment: Antiplatelet activity in human platelet rich plasma assessed as inhibition of ADP-induced platelet aggregation preincubated for 2 mins followed by ADP addition by turbidimetric method; assay type: cell-based
Platelet [16] = experiment: Drug uptake in human platelet assessed as co-localization with CD31 at 100 uM by epifluorescence assay; assay type: ADME, cell-based
Platelet [17] = experiment: Antiplatelet activity in human platelet rich plasma assessed as inhibition of epinephrine-induced platelet aggregation at 100 uM preincubated for 2 mins followed by epinephrine addition by turbidimetric method relative to control; assay type: cell-based
Cytochrome P450 3A4 = Cytochrome P450 3A4 (Homo sapiens, UniProt P08684); experiment: Inhibition of recombinant human CYP3A4 expressed in baculosomes using BOMR as substrate preincubated for 10 mins followed by substrate/NADP+ addition measured for 1 hr; assay type: ADME; details: for inhibition (INH): human, recombinant enzyme, 1 h
Platelet [18] = experiment: Antiplatelet activity in human platelet rich plasma assessed as inhibition of epinephrine-induced platelet aggregation preincubated for 2 mins followed by epinephrine addition by turbidimetric method; assay type: cell-based
Platelet [19] = experiment: Antiplatelet activity in human platelet rich plasma assessed as inhibition of ADP-induced platelet aggregation at 100 uM preincubated for 2 mins followed by ADP addition by turbidimetric method relative to control; assay type: cell-based
Platelet [20] = experiment: Potency index, ratio of ozagrel IC50 to test compound IC50 for inhibition of arachidonic acid-induced platelet aggregation in human platelet rich plasma; assay type: functional
Platelet [21] = experiment: Antiplatelet activity in human platelet rich plasma assessed as inhibition of […]-induced platelet aggregation at 100 uM preincubated for 2 mins followed by […] addition by turbidimetric method; assay type: functional, cell-based
[22] = Binding affinity to DOPC/DOPS large unilamellar vesicles assessed as blue shift at 100 uM by DAPI staining based fluorescence assay
[23] = molecular target: T2, Prostaglandin G/H synthase 2; experiment: Inhibition of recombinant human COX-2 assessed as reduction in PGH2 production at 100 uM using arachidonic acid as substrate preincubated for 5 mins followed by substrate and hematin addition measured after 2 mins by ELISA relative to control
[24] = molecular target: T3, Prostaglandin G/H synthase 1; experiment: Inhibition of ovine COX-1 assessed as reduction in PGH2 production at 100 uM using arachidonic acid as substrate preincubated for 5 mins followed by substrate and hematin addition measured after 2 mins by ELISA relative to control; details: sheep
[25] = molecular target: T3, Prostaglandin G/H synthase 1; experiment: Inhibition of ovine COX-1 assessed as reduction in PGH2 production using arachidonic acid as substrate preincubated for 5 mins followed by substrate and hematin addition measured after 2 mins by ELISA relative to control; details: sheep

Chain of Cytochrome P450 3A4 (P08684 whole entry): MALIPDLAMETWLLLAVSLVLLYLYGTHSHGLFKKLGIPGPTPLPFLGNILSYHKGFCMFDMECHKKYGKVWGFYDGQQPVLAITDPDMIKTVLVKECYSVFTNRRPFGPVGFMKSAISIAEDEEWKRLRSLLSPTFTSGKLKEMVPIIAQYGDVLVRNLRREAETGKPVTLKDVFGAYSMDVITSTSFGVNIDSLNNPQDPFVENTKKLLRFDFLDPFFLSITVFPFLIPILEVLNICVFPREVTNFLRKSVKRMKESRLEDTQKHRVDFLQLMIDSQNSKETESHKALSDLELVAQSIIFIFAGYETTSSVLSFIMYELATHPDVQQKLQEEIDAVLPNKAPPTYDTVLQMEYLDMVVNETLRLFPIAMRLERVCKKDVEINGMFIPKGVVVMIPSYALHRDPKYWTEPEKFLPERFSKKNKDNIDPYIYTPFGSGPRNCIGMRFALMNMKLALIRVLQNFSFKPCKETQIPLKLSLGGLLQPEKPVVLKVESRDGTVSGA
Chain of Prostaglandin G/H synthase 1 (Homo sapiens, UniProt P23219) (P23219 whole entry): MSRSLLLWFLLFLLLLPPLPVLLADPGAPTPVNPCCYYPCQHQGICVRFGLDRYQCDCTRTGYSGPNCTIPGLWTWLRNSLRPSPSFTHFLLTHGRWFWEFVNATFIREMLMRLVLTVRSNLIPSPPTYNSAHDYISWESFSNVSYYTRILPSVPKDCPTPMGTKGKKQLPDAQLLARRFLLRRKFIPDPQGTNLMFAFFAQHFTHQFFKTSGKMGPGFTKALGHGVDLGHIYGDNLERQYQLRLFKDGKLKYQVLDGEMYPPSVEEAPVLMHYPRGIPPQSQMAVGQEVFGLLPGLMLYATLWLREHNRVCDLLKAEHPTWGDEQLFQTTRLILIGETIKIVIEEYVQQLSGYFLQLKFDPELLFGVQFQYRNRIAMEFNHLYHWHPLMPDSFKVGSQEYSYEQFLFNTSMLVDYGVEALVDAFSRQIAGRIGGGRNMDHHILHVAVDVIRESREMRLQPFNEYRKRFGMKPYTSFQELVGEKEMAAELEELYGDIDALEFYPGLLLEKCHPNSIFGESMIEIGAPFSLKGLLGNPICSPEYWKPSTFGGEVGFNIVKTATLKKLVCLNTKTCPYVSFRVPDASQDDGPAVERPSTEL

Compound	inhibition [1]	IC50 (Platelet [2]) [µM]	Activity (Plasma [3])	inhibition (INH) [4]	Activity (Blood)	inhibition at 100 µM (Platelet [6]) [%]	Ratio IC50 (Platelet [8])	Activity (Plasma [9])	IC50 (Platelet [10]) [µM]	inhibition (INH) [11]	inhibition at 100 µM (Platelet [12]) [%]	Drug uptake (Platelet [13])	inhibition (INH) [14]	IC50 (Platelet [15]) [µM]	Drug uptake (Platelet [16])	inhibition at 100 µM (Platelet [17]) [%]	IC50 (Platelet [18]) [µM]	inhibition at 100 µM (Platelet [19]) [%]	Ratio IC50 (Platelet [20])	inhibition (Platelet [21])	also measured
Cc1cc(C(=O)N/N=C/c2ccc(Cl)cc2)c2c(C)nn(-c3ccccc3)c2n1	Active	3.67 to 10.2	Non-Toxic	Not Active	Non-Toxic	83.8	<=10	Non-Toxic	> 100	Active	35.3	Active	Not Active	> 100	Active	1.1	> 100	3.4	<=10	inactive	hemolysis at 3 h [5]: 10%; Ratio IC50 [7]: 20 to 30; IC50 (Cytochrome P450 3A4): 94.6 µM; Activity [22]: Active
Cc1cc(C(=O)N/N=C/c2ccc(O)cc2)c2c(C)nn(-c3ccccc3)c2n1	Active	3.67 to 10.2	Non-Toxic	Not Active	Non-Toxic	96.8	<=10	Non-Toxic	> 100	Not Active	64.6	Active	Not Active	> 100	Active	3.3	> 100	3.22	<=10	inactive	hemolysis at 3 h [5]: 0%; inhibition (INH) [23]: Active; inhibition (INH) [24]: Active; inhibition (INH) (Cytochrome P450 3A4): Dose-dependent effect; Activity [22]: Active
COc1ccc2c(c1)c(CC(=O)O)c(C)n2C(=O)c1ccc(Cl)cc1 [INDOMETHACIN]	–	–	–	–	–	–	–	–	–	–	–	–	–	–	–	–	–	–	–	–	inhibition (INH) [25]: < 20%
Cc1cc(C(=O)N/N=C/c2ccc(Br)cc2)c2c(C)nn(-c3ccccc3)c2n1	Active	3.67 to 10.2	Non-Toxic	Not Active	Non-Toxic	94.8	<=10	Non-Toxic	> 100	Not Active	17	Active	Not Active	> 100	Active	11.8	> 100	9.4	<=10	inactive	hemolysis at 3 h [5]: 5%; Ratio IC50 [7]: 20 to 30; IC50 (Cytochrome P450 3A4): 138 µM; Activity [22]: Active
Cc1ccc(/C=N/NC(=O)c2cc(C)nc3c2c(C)nn3-c2ccccc2)cc1	Active	3.67 to 10.2	Non-Toxic	Not Active	Non-Toxic	89.2	<=10	Non-Toxic	> 100	Not Active	5.58	Active	Not Active	> 100	Active	0	> 100	6.2	<=10	inactive	inhibition (INH) (Cytochrome P450 3A4): Dose-dependent effect; Activity [22]: Active
Cc1cc(C(=O)N/N=C/c2ccc(F)cc2)c2c(C)nn(-c3ccccc3)c2n1	Active	3.67 to 10.2	Non-Toxic	Not Active	Non-Toxic	95.4	<=10	Non-Toxic	> 100	Not Active	9.19	Active	Not Active	> 100	Active	3.88	> 100	13.8	<=10	inactive	hemolysis at 3 h [5]: 5%; inhibition (INH) (Cytochrome P450 3A4): Dose-dependent effect; Activity [22]: Active

— ChEMBL document CHEMBL4033666, “Synthesis and mechanistic evaluation of novel N'-benzylidene-carbohydrazide-1H-pyrazolo[3,4-b]pyridine derivatives as non-anionic antiplatelet agents” (Eur J Med Chem, 2017)
